Measured values published in ChEMBL document CHEMBL5390236, “Biological production of epicoccamide-aglycone and its cytotoxicity” (Bioorg Med Chem Lett, 2023).
In brackets after ≈: the same amount, converted by molar mass. Activity calls are given as the source filed them. The calls are words filed in the database; no cut-off is given here.

Assays:
[1] = Cytotoxicity against human WI-38 cells assessed as reduction in cell population to midpoint between values of non-treated control and lowest population by MTT assay; assay type: toxicity, cell-based
[2] = tested on: HeLa; experiment: Cytotoxicity against human HeLa cells assessed as reduction in cell population by MTT assay relative to control; assay type: functional
[3] = tested on: Epicoccum nigrum; experiment: Antifungal activity against Epicoccum nigrum deltaepcB assessed as reduction in fungal growth at 80 ug by paper disk assay; assay type: functional, organism-based; conditions: dose 80.0 µg
[4] = tested on: Saccharomyces cerevisiae; experiment: Antifungal activity against Saccharomyces cerevisiae assessed as reduction in fungal growth at 80 ug by paper disk assay; assay type: functional, organism-based; conditions: dose 80.0 µg
[5] = tested on: Epicoccum nigrum; experiment: Antifungal activity against wild type Epicoccum nigrum assessed as reduction in fungal growth at 80 ug by paper disk assay; assay type: functional, organism-based; conditions: dose 80.0 µg
[6] = tested on: Cryptococcus neoformans; experiment: Antifungal activity against Cryptococcus neoformans assessed as reduction in fungal growth at 80 ug by paper disk assay; assay type: functional, organism-based; conditions: dose 80.0 µg
[7] = tested on: Escherichia coli; experiment: Antibacterial activity against Escherichia coli; assay type: functional, organism-based
[8] = tested on: Staphylococcus aureus; experiment: Antibacterial activity against Staphylococcus aureus; assay type: functional
[9] = tested on: HeLa; experiment: Cytotoxicity against human HeLa cells assessed as inhibition in cell proliferation at 10 to 100 uM by MTT assay; assay type: functional, cell-based; conditions: dose 10-100 µM
[10] = tested on: WI-38; experiment: Cytotoxicity against human WI-38 cells assessed as inhibition in cell proliferation at 10 to 100 uM by MTT assay; assay type: toxicity, cell-based; conditions: wi-38, 100 µM, dose 10-100 µM
[11] = tested on: HeLa; experiment: Cytotoxicity against human HeLa cells assessed as reduction in cell population to midpoint between values of non-treated control and lowest population by MTT assay; assay type: functional, cell-based
[12] = tested on: HeLa; experiment: Cytotoxicity against human HeLa cells assessed as reduction in cell population to half by MTT assay; assay type: functional, cell-based
[13] = Cytotoxicity against human WI-38 cells assessed as reduction in cell population to half by MTT assay; assay type: toxicity, cell-based
[14] = Cytotoxicity against human WI-38 cells assessed as reduction in cell population by MTT assay relative to control; assay type: toxicity, cell-based
[15] = tested on: HeLa; experiment: Cytotoxicity against human HeLa cells assessed as relative cell population at 50 uM by MTT assay relative to control; assay type: functional
[16] = tested on: HeLa; experiment: Cytotoxicity against human HeLa cells assessed as relative cell population at 100 uM by MTT assay relative to control; assay type: functional
[17] = tested on: HeLa; experiment: Cytotoxicity against human HeLa cells assessed as inhibition in cell growth at 200 uM by MTT assay; assay type: functional, cell-based
[18] = Cytotoxicity against human WI-38 cells assessed as inhibition in cell growth at 100 uM by MTT assay relative to control; assay type: toxicity, cell-based

SMILES	MIC [8] [µg/mL]	EC50 [1] [µM]	Emax [2] [%]	Activity [3]	Activity [4]	Activity [5]	Activity [6]	Activity [7]	inhibition [9]	Activity [10]	EC50 [11] [µM]	IC50 ([12]; read-out: IC50) [µM]	IC50 [13] [µM]	Emax [14] [%]	Activity [15] [%]	Activity [16] [%]	inhibition [17]	inhibition at 100 µM [18] [%]	IC50 [12] [µM]
C[C@@H](CCCCCCCCCCCCCCO[C@@H]1O[C@H](CO)[C@@H](O)[C@H](O)[C@@H]1O)C(=O)C1=C(O)N(C)[C@@H](C)C1=O	64 (≈ 115 µM)	34	3.2	inactive	Active	inactive	inactive	inactive	–	–	70	76	38	4.6	88	14	Active	–	–
COc1cccc2c1C(=O)c1c(O)c3c(c(O)c1C2=O)C[C@@](O)(C(=O)CO)C[C@@H]3O[C@H]1C[C@H](N)[C@H](O)[C@H](C)O1 [DOXORUBICIN]	–	–	15	–	–	–	–	–	–	–	4.3	–	–	–	–	–	–	< 10	5.1
C[C@@H](CCCCCCCCC(=O)CCCCCCCCC[C@H](O)CO[C@@H]1O[C@H](CO)[C@@H](O)[C@H](O)[C@@H]1O)/C(O)=C1/C(=O)N[C@@H](Cc2ccc(O)cc2)C1=O	7.2 (≈ 9.6 µM)	–	–	–	–	–	–	–	–	–	–	–	–	–	–	–	–	–	–

More lines, main results first:

MIC [8] [µg/mL]	SMILES	EC50 [1] [µM]	Emax [2] [%]	Activity [3]	Activity [4]	Activity [5]	Activity [6]	Activity [7]	inhibition [9]	Activity [10]	EC50 [11] [µM]	IC50 ([12]; read-out: IC50) [µM]	IC50 [13] [µM]	Emax [14] [%]	Activity [15] [%]	Activity [16] [%]	inhibition [17]	inhibition at 100 µM [18] [%]	IC50 [12] [µM]
1 (≈ 2.53 µM)	C[C@@H](CCCCCCCCCCCCCCO)C(=O)C1=C(O)N(C)[C@@H](C)C1=O	9.1	23	inactive	Active	inactive	inactive	inactive	Active	Toxic	12	19	15	20	–	–	–	–	–
2.8 (≈ 4.76 µM)	C[C@@H](CCCCCCCCC(=O)CCCCCCCCC[C@H](O)CO)/C(O)=C1/C(=O)N[C@@H](Cc2ccc(O)cc2)C1=O	–	–	–	–	–	–	–	–	–	–	–	–	–	–	–	–	–	–
